Values of other authors as cited in US6464981B2, “Therapeutic agent for a cancer and method of screening the same, and health-care auxiliary food” (Orient Cancer Therapy Co., LTD, priority 2000, dated 2002).

Tested on: cancer-carrying mice

## CCCCCCCCCCCCCCCCCCCCCCCCCC(=O)N[C@@H](CO[C@H]1O[C@H](CO)[C@H](O)[C@H](O)[C@H]1O)[C@H](O)[C@H](O)CCCCCCCCCCCCCC [α-galactosylceramide]
  activation of NKT cells: NKT cells are activated
  elimination of cancer: elimination of cancer is not observed
  metastasis of the cancer: metastasis of the cancer is suppressed
